Assay results reported in paper PMC12163657 (ACS Omega, 2025).

What was measured:
CAMA-1 ESR1 WT cells = test: CAMA-1 cell proliferation, ESR1 WT; type: cell-based; conditions: Homo sapiens, CAMA-1, read-out: CAMA-1 cell prolif. pIC50 (converted)
[1] = tested on: CAMA-1 ESR1 Asp538Gly cells; test: CAMA-1 cell proliferation, ESR1 Asp538Gly; type: cell-based; conditions: Homo sapiens, CAMA-1, read-out: CAMA-1 cell prolif. pIC50 (converted)
ST941/C cells = test: ST941/C cell proliferation; type: cell-based; conditions: read-out: ST941/C cell prolif. pIC50 (converted)
[2] = Single-dose pharmacokinetics, monkey; type: in vivo; conditions: serum
[3] = tested on: E2-induced uterine wet weight; test: Ovariectomized mouse uterine wet weight study; type: in vivo; conditions: dose giving 50% inhibition of E2-induced uterine wet weight; oral, once daily, 3 days
[4] = Plasma protein binding, rapid equilibrium dialysis, rat plasma; type: in vitro ADME
[5] = In vivo mouse oral single dose PK
ESR1 WT = target: T1, ESR1 WT (Homo sapiens, UniProt P03372); test: AP; type: cell-based
T1 sequence (P03372 1-595): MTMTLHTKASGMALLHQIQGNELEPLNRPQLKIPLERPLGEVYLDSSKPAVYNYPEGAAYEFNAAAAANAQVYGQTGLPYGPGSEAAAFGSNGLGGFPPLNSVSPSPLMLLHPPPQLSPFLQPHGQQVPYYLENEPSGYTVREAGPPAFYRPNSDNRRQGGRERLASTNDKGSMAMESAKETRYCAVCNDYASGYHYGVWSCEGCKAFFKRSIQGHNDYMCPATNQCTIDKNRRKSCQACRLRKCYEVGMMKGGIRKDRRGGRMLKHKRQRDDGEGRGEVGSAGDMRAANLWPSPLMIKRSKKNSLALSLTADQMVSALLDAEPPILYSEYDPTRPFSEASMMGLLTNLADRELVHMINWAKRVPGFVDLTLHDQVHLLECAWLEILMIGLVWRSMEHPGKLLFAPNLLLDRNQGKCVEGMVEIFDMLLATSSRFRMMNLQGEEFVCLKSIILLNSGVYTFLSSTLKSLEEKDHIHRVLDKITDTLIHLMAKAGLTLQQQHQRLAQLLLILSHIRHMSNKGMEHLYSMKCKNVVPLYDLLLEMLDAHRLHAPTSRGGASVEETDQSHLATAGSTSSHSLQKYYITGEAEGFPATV

[6] = tested on: CAMA-1 ESR1 Tyr537Ser cells; test: CAMA-1 cell proliferation, ESR1 Tyr537Ser; type: cell-based; conditions: Homo sapiens, CAMA-1, read-out: CAMA-1 cell prolif. pIC50 (converted)
ERα = target: T2, ERα (Homo sapiens, UniProt P03372); test: Alkaline phosphatase; type: cell-based
T2 sequence (P03372 1-595): T1 sequence (P03372 1-595)

ERα LBD = target: T3, ERα LBD (Homo sapiens, UniProt P03372); test: LanthaScreen TR-FRET ERα competitive binding assay
T3 sequence (P03372 311-547 limits assumed): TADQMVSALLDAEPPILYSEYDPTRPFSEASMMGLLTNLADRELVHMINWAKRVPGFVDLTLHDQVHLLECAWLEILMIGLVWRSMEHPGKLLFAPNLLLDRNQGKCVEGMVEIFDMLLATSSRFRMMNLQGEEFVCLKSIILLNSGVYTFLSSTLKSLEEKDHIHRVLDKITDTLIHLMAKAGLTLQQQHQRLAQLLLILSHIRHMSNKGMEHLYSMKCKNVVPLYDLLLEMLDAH

CYP 3A4 = CYP 3A4 (Homo sapiens, UniProt P08684); test: CYP inhibition in human liver microsomes; type: in vitro ADME
GR = target: T4, GR (Homo sapiens, UniProt P04150); test: Reporter assay of gene transcription activity, GR; type: cell-based
T4 sequence (P04150 1-777): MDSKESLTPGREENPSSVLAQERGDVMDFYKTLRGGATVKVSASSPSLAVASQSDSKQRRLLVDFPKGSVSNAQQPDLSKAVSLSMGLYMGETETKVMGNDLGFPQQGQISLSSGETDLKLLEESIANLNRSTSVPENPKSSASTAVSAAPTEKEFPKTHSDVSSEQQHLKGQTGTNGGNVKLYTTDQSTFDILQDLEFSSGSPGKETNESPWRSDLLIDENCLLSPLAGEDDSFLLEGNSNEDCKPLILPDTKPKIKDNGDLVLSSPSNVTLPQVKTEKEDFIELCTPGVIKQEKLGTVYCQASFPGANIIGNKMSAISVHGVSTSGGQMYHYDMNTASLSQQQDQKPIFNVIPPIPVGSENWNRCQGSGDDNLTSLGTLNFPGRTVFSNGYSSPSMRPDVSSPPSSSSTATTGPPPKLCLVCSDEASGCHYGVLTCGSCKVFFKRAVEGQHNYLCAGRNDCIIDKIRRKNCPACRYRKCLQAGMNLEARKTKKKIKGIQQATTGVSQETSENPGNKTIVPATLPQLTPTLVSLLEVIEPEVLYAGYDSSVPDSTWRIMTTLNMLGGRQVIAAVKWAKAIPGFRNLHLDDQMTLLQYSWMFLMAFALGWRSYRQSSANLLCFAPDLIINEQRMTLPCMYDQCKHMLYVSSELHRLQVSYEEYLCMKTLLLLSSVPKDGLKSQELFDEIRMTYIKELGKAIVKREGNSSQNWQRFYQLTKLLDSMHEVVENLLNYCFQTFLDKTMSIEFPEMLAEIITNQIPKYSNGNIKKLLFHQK

[7] = Single-dose pharmacokinetics, mouse; type: in vivo; conditions: serum
[8] = Plasma protein binding, rapid equilibrium dialysis, human plasma; type: in vitro ADME
[9] = Human hepatocyte stability; type: in vitro ADME; conditions: hepatocytes

Chain of CYP 3A4 (P08684 whole entry): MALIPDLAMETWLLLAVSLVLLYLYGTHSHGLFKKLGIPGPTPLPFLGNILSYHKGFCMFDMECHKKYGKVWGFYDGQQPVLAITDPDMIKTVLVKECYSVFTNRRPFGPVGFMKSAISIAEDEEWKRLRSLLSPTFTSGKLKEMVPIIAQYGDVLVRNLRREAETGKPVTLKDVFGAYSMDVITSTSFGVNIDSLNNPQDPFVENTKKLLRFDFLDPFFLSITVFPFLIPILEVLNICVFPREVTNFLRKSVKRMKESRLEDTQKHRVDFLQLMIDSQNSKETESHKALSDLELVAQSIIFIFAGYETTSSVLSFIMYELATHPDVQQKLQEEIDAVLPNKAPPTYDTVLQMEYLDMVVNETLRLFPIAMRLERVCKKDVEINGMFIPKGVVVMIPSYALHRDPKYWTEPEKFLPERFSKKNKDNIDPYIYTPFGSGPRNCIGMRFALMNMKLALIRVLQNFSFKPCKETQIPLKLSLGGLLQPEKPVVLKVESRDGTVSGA

CCCN1CC(Oc2ccc([C@@H]3c4[nH]c5ccccc5c4C[C@@H](C)N3CC(C)(C)F)cc2)C1 [compound 21, (1R,3R)-2-(2-Fluoro-2-methylpropyl)-3-methyl-1-(4-((1-propylazetidin-3-yl)oxy)phenyl)-2,3,4,9-tetrahydro-1H-pyrido[3,4-b]indole]
IC50 (CAMA-1 ESR1 WT cells): 1.58 nM | IC50 [1]: 6.31 nM | IC50 (ST941/C cells): 31.6 nM | AUC ([2]; iv, 3 mg/kg): 3420 ng·h/mL | Cmax ([2]; iv, 3 mg/kg): 651 ng/mL | Vd ([2]; iv, 3 mg/kg): 49 L/kg | clearance ([2]; iv, 3 mg/kg): 13.3 mL/min/kg | half-life ([2]; iv, 3 mg/kg): 42 h | AUC ([2]; po, 10 mg/kg): 5090 ng·h/mL | Cmax ([2]; po, 10 mg/kg): 170 ng/mL | Tmax ([2]; po, 10 mg/kg): 8 h | bioavailability ([2]; po, 10 mg/kg): 44.4% | half-life ([2]; po, 10 mg/kg): 34 h | uterine wet weight ID50 [3]: <1 µg/kg | Plasma free drug percentage [4]: 0.24% | total AUCinf ([5]; oral single dose): 2477 ng·h/mL | free AUCinf ([5]; oral single dose, estimated based on the percent free fraction): 1.5 ng·h/mL | Cmax ([5]; plasma, po): 121 ng/mL | half-life ([5]; plasma, po): 18 h | IC50 (ESR1 WT): 2.51 nM | IC50 [6]: 12.6 nM | IC50 (ERα): 3.16 nM | IC50 (ERα LBD): 2 nM | IC50 (CYP 3A4): > 10000 nM | IC50 (GR): > 3160 nM | agonist cross-reactivity on GR (GR; in words): no agonist cross-reactivity | GR pIC50, antag. mode (GR; reporter assay, antag. mode): <5.5 | AUC ([7]; iv, 0.5 mg/kg): 161 ng·h/mL | Cmax ([7]; iv, 0.5 mg/kg): 29 ng/mL | Vd ([7]; iv, 0.5 mg/kg): 27 L/kg | clearance ([7]; iv, 0.5 mg/kg): 51.7 mL/min/kg | half-life ([7]; iv, 0.5 mg/kg): 7 h | AUC ([7]; po, 5 mg/kg): 1030 ng·h/mL | Cmax ([7]; po, 5 mg/kg): 91 ng/mL | Tmax ([7]; po, 5 mg/kg): 1 h | bioavailability ([7]; po, 5 mg/kg): 72% | half-life ([7]; po, 5 mg/kg): 10 h | plasma protein-bound ([8]; across all species, including humans): > 99% | Plasma free drug percentage ([8]; hu plasma): 0.08% | half-life [9]: 2.17 h | hepatocyte CLint [9]: 10.7 µL/min/1e6 cells
